Data: US4714699A, “2-tolylmorpholine derivatives and pharmaceutical compositions” (Societe Anonyme Dite: Laboratoire L. Lafon, priority 1983, dated 1987)
Entries after “also recorded” stand apart in the source; their conditions may differ.

How the values were obtained:
[1] = interaction with apomorphine in rats; format: in vivo, male rats; details: i.p., 0.5 mg/kg apomorphine
Method: (§1) In the following tests, CRL 40 875, in solution in distilled water, was administered intraperitoneally in a volume of 20 ml/kg to male mice and 5 ml/kg to male rats.
CRL 40 875 is administered to groups of 6 rats 0.5 hour before the subcutaneous injection of 0.5 mg/kg of apomorphine.
(§2) In the following tests, CRL 40 897, in solution in distilled water (pH 4), was administered intraperitoneally in a volume of 20 ml/kg to male mice and in a volume of 5 ml/kg to male rats, the procedures being those given above for CRL 40 875.
(§3) In the tests undertaken, CRL 40 912, in solution in distilled water (pH 4.5), was administered intraperitoneally in a volume of 20 ml/kg to male mice and in a volume of 5 ml/kg to male rats, the procedures being those given above for CRL 40 875.

[2] = interaction with oxotremorine; format: in vivo, male mice
Method: as §1
CRL 40 875 is administered to groups of 6 mice half an hour before the intraperitoneal injection of 0.5 mg/kg of oxotremorine.
as §2, §3

[3] = motility reduced by habituation to the enclosure; format: in vivo, male mice; details: i.p.
Method: as §1
After they have stayed in the actimeters for 18 hours, the mice (6 per dose, 12 control animals) receive CRL 40 875. They are immediately returned to their respective enclosures and, half an hour later, their motility is recorded for 30 minutes.
as §2, §3

[4] = clinical trials, treatment of depressions; format: in vivo; details: man
From the text: In clinical trials, good results were obtained on man with CRL 40 875 (Example 1), CRL 40 912 (Example 2) and CRL 40 897 (Example 3) in the treatment of depressions.

[5] = overall behavior and reactivities in mice; format: in vivo, male mice
Method: as §1
Groups of three mice are observed before and then 15 minutes, 30 minutes, 1 hour, 2 hours, 3 hours and 24 hours after the administration of CRL 40 875.
as §2
(§4) The toxicological and neuropsychopharmacological studies undertaken in accordance with the procedures described above for CRL 40 875 enabled the following observations to be made: […]

[6] = action on the spontaneous motility; format: in vivo, male mice; details: mice
Method: as §1
Half an hour after they have received CRL 40 875, the mice (6 per dose, 12 control animals) are placed in an actimeter, where their motility is recorded for 30 minutes.
as §2

[7] = interaction with reserpine; format: in vivo, male mice; details: i.p., mice
Method: as §1
Four hours after the intraperitoneal injection of 2.5 mg/kg of reserpine, groups of 6 mice receive CRL 40 875. The effects on the temperature and ptosis are observed.
as §2, §3

α-adrenergic = α-adrenergic stimulation; details: in vivo; hydrochloride
[8] = pretoxicity (LD-O, maximum non-lethal dose); format: in vivo, male mice
Method: as §1, §2, §3, §4

four plate test = format: in vivo, male mice; details: i.p., mice
Method: as §1
(§5) The test is performed on groups of 10 mice half an hour after the administration of CRL 40 875.
as §2

[9] = motility reduced by hypoxic aggression; format: in vivo, male mice; details: i.p.
Method: as §1
Half an hour after they have received CRL 40 875, the mice (10 per dose, 20 control animals) are subjected to acute hypobaric anoxia [pressure reduction of 600 mm Hg (i.e. about 8×10^4 pascals) in 90 seconds; release of vacuum in 45 seconds] and are then placed in an actimeter, where their motility is recorded for 10 minutes.
as §2

[10] = cardiovascular study in rats; format: in vivo; details: normally hypertensive rats
traction test = format: in vivo, male mice; details: i.p., mice
Method: as §1, §5, §2

[11] = interaction with apomorphine in mice; format: in vivo, male mice; details: mice
Method: as §1
Groups of 6 mice receive CRL 40 875 0.5 hour before the subcutaneous injection of 1 or 16 mg/kg of apomorphine.
as §2, §3

[12] = neuropsychopharmacological study, overall findings; format: in vivo, mice, rats; details: for sedative effects: weak doses where stated
Method: as §1, §2, §3, §4

[13] = asphyxiant anoxia (gallamine triiodoethylate); format: in vivo, male mice; details: i.p., mice
Method: as §1
Groups of 20 mice receive CRL 40 875 half an hour before the intraperitoneal administration of 32 mg/kg of gallamine triidoethylate (which is a reference curarizing agent).
as §2, §3

[14] = action on the intergroup aggressiveness; format: in vivo, male mice; details: 0.5 mg/kg and 2 mg/kg i.p., mice
Method: as §1
After they have stayed for 3 weeks in the two halves of a cage divided by an opaque partition, groups of 3 mice receive CRL 40 875. Half an hour later, the two groups from the same cage are brought together by removal of the partition, and the number of fights which occur in 10 minutes is noted.
as §2, §3

[15] = cardiovascular study in dogs; format: in vivo
[16] = interaction with amphetamine; format: in vivo, male rats; details: i.p.; 2 mg/kg amphetamine; rats
Method: as §1, §2, §3

electric shock = format: in vivo, male mice; details: i.p., mice
Method: as §1, §5, §2

overall behavior in rats = format: in vivo, male rats; details: 32 mg/kg i.p., male rats
Method: as §1, §4

[17] = 64 mg/kg and 32 mg/kg i.p., mice
[18] = 128 mg/kg i.p., groups of three mice
[19] = anesthetized dogs, intraduodenal (CRL 40 903: then intravenous)

Cc1ccc(C2CN(C(C)C)CCO2)cc1.Cl (centres unmarked) [CRL 40 875, 2-p-tolyl-4-isopropylmorpholine hydrochloride]
effect on stereotypies induced by apomorphine [1]: does not substantially impair the stereotype behavior induced by apomorphine in rats | effect on peripheral cholinergic symptoms (defecation) after oxotremorine ([2]; 0.5, 2, 8 and 32 mg/kg i.p., mice): increases the proportion of mice which exhibit defecation | effect on the trembling due to oxotremorine ([2]; 8 and 32 mg/kg i.p., mice): seems to increase the duration of the trembling due to oxotremorine | hypothermic effect ([2]; i.p., mice): exerts a hypothermic effect | effect on the temperature drop caused by oxotremorine ([2]; strong dose, i.p.): partially opposes the temperature drop caused by oxotremorine | resumption in the activity of mice accustomed to their enclosure [3]: does not cause a resumption in the activity of mice accustomed to their enclosure | results in the treatment of depressions [4]: good results | duration of hypothermia ([5]; 2 mg/kg i.p., mice): 0.5 h | hypothermia (temperature change) ([5]; 2 mg/kg i.p., mice): -1.5 °C | duration of hypothermia ([5]; 8 mg/kg i.p., mice): 1 h | duration of piloerection ([5]; 8 mg/kg i.p., mice): 3 h | hypothermia (temperature change) ([5]; 8 mg/kg i.p., mice): -3.9 °C | piloerection, animals affected ([5]; 8 mg/kg i.p., mice): 2/3 | duration of mydriasis ([5]; 32 mg/kg i.p., mice): 0.5 h | duration of reduction in the reactivity to touch and muscular tonus ([5]; 32 mg/kg i.p., mice): 2 h | hypothermia (temperature change) ([5]; 32 mg/kg i.p., mice): -4.1 °C | mydriasis ([5]; 32 mg/kg i.p., mice): moderate mydriasis | piloerection, animals affected ([5]; 32 mg/kg i.p., mice): 2 out of 3 | hypomotility ([6]; 8 and 32 mg/kg i.p.): very significant | minimal effective dose ([6]; Mus musculus, ip, read-out: dose as from which motility is reduced): ≥ 2 mg/kg | effect on the ptosis induced by reserpine [7]: without modifying the ptosis induced by reserpine | effect on the hypothermia induced by reserpine ([7]; strong dose): aggravates the hypothermia induced by reserpine | α-adrenergic stimulant effect (α-adrenergic): signs of peripheral α-adrenergic stimulation (salivation, piloerection, trembling); also recorded: stimulant effects, especially of the α-adrenergic type | mortality [8, 17]: no mortality | signs of toxicity [8, 17]: abdominal cramp and trembling | mortality [8, 18]: death (of the 3 animals in the group) | signs of toxicity [8, 18]: thick saliva and convulsions | time to death ([8]; 128 mg/kg i.p., mice): 10 min | number of punished passes (four plate test): does not cause an increase in the number of punished passes | motor recovery in mice after reduced-pressure enclosure [9]: does not cause an improvement in the motor recovery | cardiovascular parameters [10]: does not modify the cardiovascular parameters | major motor incapacity (traction test): does not cause major motor incapacity | intrinsic hypothermic effect ([11]; i.p.): exerts an intrinsic hypothermic effect | effect on righting behavior and stereotypies ([11]; i.p., apomorphine): does not modify the righting behavior and the stereotypies | effect on the hypothermia induced by apomorphine ([11]; strong dose (32 mg/kg) i.p., 16 mg/kg apomorphine): partially opposes the hypothermia induced by 16 mg/kg of apomorphine | variation of sedative effects with dose ([12]; in vivo): increase continuously with the dose administered, up to a maximum value, and then decrease continuously and progressively as the dose increases | antidepressant effects ([12]; strong doses, hydrochloride): antidepressant effects (antagonism of the hypothermia induced by apomorphine and oxotremorine); also recorded: antidepressants at strong doses | sedative effects ([12]; hydrochloride): sedative effects (hyporeactivity, hypothermia, hypomotility, significant reduction of aggressiveness, delayed onset of asphyxiant convulsions); also recorded: sedative effects (hypomotility, hypothermia, reduction of intergroup aggressiveness | time taken for convulsions and death to occur following asphyxiant anoxia [13]: delays the time taken for convulsions and death to occur | effect on number of fights [14]: suppression of the fights | effect on the motor activity [14]: only a moderate effect on the motor activity | effect on blood pressure and heart rate ([15]; dogs): hypotensive and tachycardiac agent | effect on stereotypies induced by amphetamine [16]: stereotypies induced by amphetamine are not modified | effect on electric shock (electric shock): does not modify the convulsant effects of electric shock

Cc1ccc(C2CN(C(C)(C)C)CCO2)cc1.Cl (centres unmarked) [CRL 40 903, 2-p-tolyl-4-tert.-butylmorpholine hydrochloride]
sedation and depressed respiration ([5]; 64 mg/kg and 128 mg/kg i.p., male mice): induce sedation and depressed respiration | LD-O (maximum non-lethal dose) ([8]; intraperitoneally, male mice): greater than 128 mg/kg | sedation and depressed respiration (overall behavior in rats): induce sedation and depressed respiration | sedative effects [12]: sedative effects | maximum increase in femoral flow rate ([15]; 20 mg/kg, anesthetized dogs, intraduodenal then intravenous): +150% | minimal effective dose ([15]; Canis lupus familiaris, anesthetized dogs, intraduodenal (CRL 40 903: then intravenous), read-out: dose as from which femoral flow rate is increased): ≥ 2.5 mg/kg | dose as from which tachycardia appears [15, 19]: ≥ 1 mg/kg | effect on blood pressure [15, 19]: no action on the blood pressure | effect on the hypertension induced by noradrenaline [15, 19]: does not modify the hypertension induced by noradrenaline | effect on the hypotension / effects of isoprenaline [15, 19]: reduces the hypotension induced by isoprenaline | effect of propanolol on induced vasodilation ([15]; anesthetized dogs, intraduodenal then intravenous): not completely suppressed by propanolol | vasodilator property ([15]; dog, in vivo): particularly interesting as vasodilators
